Data published in ChEMBL document CHEMBL1287778, “Antifungal agents. Part 5: synthesis and antifungal activities of aminoguanidine derivatives of N-arylsulfonyl-3-acylindoles” (2010).

Assays:
Format in all cases: functional
[1] = Antifungal activity against Fusarium oxysporum f. sp. cucumerinum assessed as percent inhibition at 100 ug/ml
Alternaria alternata = experiment: Antifungal activity against Alternaria alternata assessed as percent inhibition at 100 ug/ml
Bipolaris sorokiniana = experiment: Antifungal activity against Bipolaris sorokiniana assessed as percent inhibition at 100 ug/ml
Alternaria brassicae = experiment: Antifungal activity against Alternaria brassicae assessed as percent inhibition at 100 ug/ml
Fusarium graminearum = experiment: Antifungal activity against Fusarium graminearum assessed as percent inhibition at 100 ug/ml
[2] = test system: Fusarium oxysporum f. sp. vasinfectum; experiment: Antifungal activity against Fusarium oxysporum f. sp. vasinfectum assessed as percent inhibition at 100 ug/ml
Pyricularia oryzae = experiment: Antifungal activity against Pyricularia oryzae assessed as percent inhibition at 100 ug/ml

`CCCCC/C(=N\NC(=N)N)c1cn(S(=O)(=O)c2ccccc2)c2ccccc12` gave an inhibition [1] of 38.6%, an inhibition at 100 µg/mL (Alternaria alternata) of 60.6% and an inhibition at 100 µg/mL (Bipolaris sorokiniana) of 50.2%. For the same compound, the inhibition at 100 µg/mL (Alternaria brassicae) was 30%, the inhibition at 100 µg/mL (Fusarium graminearum) was 39.4% and the inhibition at 100 µg/mL [2] was 30.7%. For the same compound, the inhibition at 100 µg/mL (Pyricularia oryzae) was 52%.
In the case of `N=C(N)N/N=C/c1cn(S(=O)(=O)c2cccc([N+](=O)[O-])c2)c2ccccc12`, the inhibition [1] is reported as 28%, the inhibition at 100 µg/mL (Alternaria alternata) is reported as 51.1% and the inhibition at 100 µg/mL (Bipolaris sorokiniana) is reported as 36.9%. For the same compound, the inhibition at 100 µg/mL (Alternaria brassicae) was 30%, the inhibition at 100 µg/mL (Fusarium graminearum) was 31.4% and the inhibition at 100 µg/mL [2] was 28.6%. It also gave an inhibition at 100 µg/mL (Pyricularia oryzae) of 42.3%.
Work on `Cc1ccc(S(=O)(=O)n2cc(/C=N/NC(=N)N)c3ccc(C)cc32)cc1` yielded an inhibition [1] of 43.5%, an inhibition at 100 µg/mL (Alternaria alternata) of 59.2% and an inhibition at 100 µg/mL (Bipolaris sorokiniana) of 46.2%. For the same compound, the inhibition at 100 µg/mL (Alternaria brassicae) was 30.9%, the inhibition at 100 µg/mL (Fusarium graminearum) was 39% and the inhibition at 100 µg/mL [2] was 40.5%. For the same compound, the inhibition at 100 µg/mL (Pyricularia oryzae) was 58.2%.
Compound `C/C(=N\NC(=N)N)c1cn(S(=O)(=O)c2ccc(C)cc2)c2ccccc12` has an inhibition [1] of 37.2%, an inhibition at 100 µg/mL (Alternaria alternata) of 62.9% and an inhibition at 100 µg/mL (Bipolaris sorokiniana) of 58.4%. The inhibition at 100 µg/mL (Alternaria brassicae) was 37.9%, the inhibition at 100 µg/mL (Fusarium graminearum) was 48.8% and the inhibition at 100 µg/mL [2] was 58.3%. It also gave an inhibition at 100 µg/mL (Pyricularia oryzae) of 52.3%.
Compound `C/C(=N\NC(=N)N)c1cn(S(=O)(=O)c2ccccc2)c2cccc(C)c12` has an inhibition [1] of 63.1%, an inhibition at 100 µg/mL (Alternaria alternata) of 79.2% and an inhibition at 100 µg/mL (Bipolaris sorokiniana) of 82.3%. It also gave an inhibition at 100 µg/mL (Alternaria brassicae) of 52%, an inhibition at 100 µg/mL (Fusarium graminearum) of 52.3% and an inhibition at 100 µg/mL [2] of 64.9%. For the same compound, the inhibition at 100 µg/mL (Pyricularia oryzae) was 79.6%.
In the case of `Cc1ccc(S(=O)(=O)n2cc(/C=N/NC(=N)N)c3ccccc32)cc1`, the inhibition [1] is reported as 36.5%, the inhibition at 100 µg/mL (Alternaria alternata) is reported as 65.3% and the inhibition at 100 µg/mL (Bipolaris sorokiniana) is reported as 66%. It also gave an inhibition at 100 µg/mL (Alternaria brassicae) of 34.9%, an inhibition at 100 µg/mL (Fusarium graminearum) of 44.1% and an inhibition at 100 µg/mL [2] of 51.8%. For the same compound, the inhibition at 100 µg/mL (Pyricularia oryzae) was 56.7%.
Work on `C/C(=N\NC(=N)N)c1cn(S(=O)(=O)c2ccccc2)c2ccccc12` yielded an inhibition [1] of 49.7%, an inhibition at 100 µg/mL (Alternaria alternata) of 73.5% and an inhibition at 100 µg/mL (Bipolaris sorokiniana) of 75.3%. For the same compound, the inhibition at 100 µg/mL (Alternaria brassicae) was 40.2%, the inhibition at 100 µg/mL (Fusarium graminearum) was 37.8% and the inhibition at 100 µg/mL [2] was 60%. The inhibition at 100 µg/mL (Pyricularia oryzae) was 74.3%.
`C/C(=N\NC(=N)N)c1cn(S(=O)(=O)c2ccc(C)cc2)c2cccc(C)c12` showed an inhibition [1] of 57%, an inhibition at 100 µg/mL (Alternaria alternata) of 83% and an inhibition at 100 µg/mL (Bipolaris sorokiniana) of 80.6%. For the same compound, the inhibition at 100 µg/mL (Alternaria brassicae) was 56.9%, the inhibition at 100 µg/mL (Fusarium graminearum) was 46.6% and the inhibition at 100 µg/mL [2] was 55.6%. The inhibition at 100 µg/mL (Pyricularia oryzae) was 84.8%.
`N=C(N)N/N=C/c1cn(S(=O)(=O)c2ccccc2)c2ccccc12` gave an inhibition [1] of 33.7%, an inhibition at 100 µg/mL (Alternaria alternata) of 61.5% and an inhibition at 100 µg/mL (Bipolaris sorokiniana) of 66.5%. For the same compound, the inhibition at 100 µg/mL (Alternaria brassicae) was 38.8%, the inhibition at 100 µg/mL (Fusarium graminearum) was 46.3% and the inhibition at 100 µg/mL [2] was 47.8%. For the same compound, the inhibition at 100 µg/mL (Pyricularia oryzae) was 57.8%.
With `CC/C(=N\NC(=N)N)c1cn(S(=O)(=O)c2ccccc2)c2ccccc12` the inhibition [1] was 48.4%, the inhibition at 100 µg/mL (Alternaria alternata) was 73.8% and the inhibition at 100 µg/mL (Bipolaris sorokiniana) was 69.2%. It also gave an inhibition at 100 µg/mL (Alternaria brassicae) of 43.3%, an inhibition at 100 µg/mL (Fusarium graminearum) of 50.5% and an inhibition at 100 µg/mL [2] of 56.7%. The inhibition at 100 µg/mL (Pyricularia oryzae) was 75.6%.
`Cc1ccc(S(=O)(=O)n2cc(/C=N/NC(=N)N)c3cc(C#N)ccc32)cc1` gave an inhibition [1] of 6.55%, an inhibition at 100 µg/mL (Alternaria alternata) of 15.2% and an inhibition at 100 µg/mL (Bipolaris sorokiniana) of 17%. For the same compound, the inhibition at 100 µg/mL (Alternaria brassicae) was 10.4%, the inhibition at 100 µg/mL (Fusarium graminearum) was 13.3% and the inhibition at 100 µg/mL [2] was 13%. For the same compound, the inhibition at 100 µg/mL (Pyricularia oryzae) was 16.3%.
For `COc1ccc(S(=O)(=O)n2cc(/C(C)=N/NC(=N)N)c3ccc(C)cc32)cc1`, the inhibition [1] was 25.8%, the inhibition at 100 µg/mL (Alternaria alternata) was 42.5% and the inhibition at 100 µg/mL (Bipolaris sorokiniana) was 35%. The inhibition at 100 µg/mL (Alternaria brassicae) was 18.2%, the inhibition at 100 µg/mL (Fusarium graminearum) was 44.8% and the inhibition at 100 µg/mL [2] was 24.2%. It also gave an inhibition at 100 µg/mL (Pyricularia oryzae) of 43%.
`Cc1cccc2c1c(/C=N/NC(=N)N)cn2S(=O)(=O)c1ccccc1` gave an inhibition [1] of 26.3%, an inhibition at 100 µg/mL (Alternaria alternata) of 42.5% and an inhibition at 100 µg/mL (Bipolaris sorokiniana) of 36.9%. For the same compound, the inhibition at 100 µg/mL (Alternaria brassicae) was 21.1%, the inhibition at 100 µg/mL (Fusarium graminearum) was 26% and the inhibition at 100 µg/mL [2] was 19.9%. It also gave an inhibition at 100 µg/mL (Pyricularia oryzae) of 46.8%.
With `CCCCC/C(=N\NC(=N)N)c1cn(S(=O)(=O)c2ccc(C)cc2)c2cc(C)ccc12` the inhibition [1] was 39.8%, the inhibition at 100 µg/mL (Alternaria alternata) was 54.7% and the inhibition at 100 µg/mL (Bipolaris sorokiniana) was 50.5%. For the same compound, the inhibition at 100 µg/mL (Alternaria brassicae) was 22.8%, the inhibition at 100 µg/mL (Fusarium graminearum) was 28.5% and the inhibition at 100 µg/mL [2] was 33.3%. It also gave an inhibition at 100 µg/mL (Pyricularia oryzae) of 44.5%.
In the case of `Cc1ccc2c(/C=N/NC(=N)N)cn(S(=O)(=O)c3ccccc3)c2c1`, the inhibition [1] is reported as 41%, the inhibition at 100 µg/mL (Alternaria alternata) is reported as 69.2% and the inhibition at 100 µg/mL (Bipolaris sorokiniana) is reported as 59.5%. For the same compound, the inhibition at 100 µg/mL (Alternaria brassicae) was 48.4%, the inhibition at 100 µg/mL (Fusarium graminearum) was 47.8% and the inhibition at 100 µg/mL [2] was 40%. It also gave an inhibition at 100 µg/mL (Pyricularia oryzae) of 64.2%.
With `N#Cc1ccc2c(c1)c(/C=N/NC(=N)N)cn2S(=O)(=O)c1ccccc1` the inhibition [1] was 11.1%, the inhibition at 100 µg/mL (Alternaria alternata) was 23.4% and the inhibition at 100 µg/mL (Bipolaris sorokiniana) was 13.8%. The inhibition at 100 µg/mL (Alternaria brassicae) was 9.09%, the inhibition at 100 µg/mL (Fusarium graminearum) was 26% and the inhibition at 100 µg/mL [2] was 14.1%. The inhibition at 100 µg/mL (Pyricularia oryzae) was 20.1%.
For `Cc1cc(O)no1` [HYMEXAZOL], the inhibition [1] was 60%, the inhibition at 100 µg/mL (Alternaria alternata) was 70.8% and the inhibition at 100 µg/mL (Bipolaris sorokiniana) was 61.9%. For the same compound, the inhibition at 100 µg/mL (Alternaria brassicae) was 58%, the inhibition at 100 µg/mL (Fusarium graminearum) was 68% and the inhibition at 100 µg/mL [2] was 63.2%. It also gave an inhibition at 100 µg/mL (Pyricularia oryzae) of 75.1%.
Compound `Cc1ccc(S(=O)(=O)n2cc(/C=N/NC(=N)N)c3c(C)cccc32)cc1` has an inhibition [1] of 44.7%, an inhibition at 100 µg/mL (Alternaria alternata) of 70.8% and an inhibition at 100 µg/mL (Bipolaris sorokiniana) of 72.6%. It also gave an inhibition at 100 µg/mL (Alternaria brassicae) of 49.1%, an inhibition at 100 µg/mL (Fusarium graminearum) of 48.2% and an inhibition at 100 µg/mL [2] of 41.6%. The inhibition at 100 µg/mL (Pyricularia oryzae) was 72.2%.
`C/C(=N\NC(=N)N)c1cn(S(=O)(=O)c2cccc([N+](=O)[O-])c2)c2cc(C)ccc12` showed an inhibition [1] of 34.9%, an inhibition at 100 µg/mL (Alternaria alternata) of 50.6% and an inhibition at 100 µg/mL (Bipolaris sorokiniana) of 37.6%. For the same compound, the inhibition at 100 µg/mL (Alternaria brassicae) was 33.3%, the inhibition at 100 µg/mL (Fusarium graminearum) was 20.6% and the inhibition at 100 µg/mL [2] was 23.2%. It also gave an inhibition at 100 µg/mL (Pyricularia oryzae) of 50.7%.
